Columns and labels:
[1] = test system: Gne−/−hGNED176V-Tg mice; test: Muscle contractile properties analysis (gastrocnemius); assay type: in vivo; settings: for Peak isometric twitch force (Pt) / Maximum tetanic force (Po): gastrocnemius; for Peak isometric twitch force (Pt): untreated 167.1±6.0; for Maximum tetanic force (Po): untreated 526.7±24.1; for Specific isometric force (Pt/CSA): untreated 16.3±2.6; for Specific tetanic force (Po/CSA): untreated 51.4±8.9
Method: N-Acetylcysteine (NAC) Treatment Protocols: […] were randomly divided into high dose NAC (n=13), low dose NAC (n=13), or untreated control (n=17) groups. […] There was no difference in water consumption between mice receiving NAC supplemented water or regular drinking water. […] Three littermates groups (high dose NAC; n=7, low dose NAC; n=7, or untreated control; n=6) were treated in the same way. Muscle contractile properties analysis: The contractile properties of the gastrocnemius and tibialis anterior muscles were measured according to previous protocol ([…] et al., Nat Med. 2009; 15:690-695; […] et al., Physiol Genomics. 2008; 35:106-115). After the mouse was anesthetized with intraperitoneal sodium pentobarbital (50 mg per kg body weight), the entire skeletal muscles were isolated along with the proximal bone of origin intact. Then the muscle was mounted in a vertical chamber and connected to a force-displacement and length servo system. […] With the muscle held at L0 and duration changed to 3 ms, the force developed during trains of stimulation pulses (10 to 100 Hz) was recorded and the maximum absolute tetanic force (Po) was determined. Absolute force was normalized with the physiologic cross-sectional area (CSA; muscle weight divided by the product of L0 and 1.066 g/cm^3) to obtain specific force (Pt/CSA and Po/CSA).

[2] = Safety of long term NAC treatment (side effects, serum chemistry); assay type: in vivo, mice
Description: N-Acetylcysteine (NAC) Treatment Protocols: Gne^−/−hGNED176V-Tg mice were randomly divided into high dose NAC (n=13), low dose NAC (n=13), or untreated control (n=17) groups. For NAC (Sigma) treatment, mice were provided ad libitum access to drinking water containing high dose NAC (1.0% w/v) or low dose NAC (0.1% w/v), which gives an average dose of 1.5 g/kg for high dose group and of 0.15 g/kg for low dose group per day. There was no difference in water consumption between mice receiving NAC supplemented water or regular drinking water. Treatment was initiated from the average age of 26 weeks until the mice reached at least 55 weeks. Three littermates groups (high dose NAC; n=7, low dose NAC; n=7, or untreated control; n=6) were treated in the same way.

CC(=O)N[C@@H](CS)C(=O)O [NAC, N-acetylcysteine]
Peak isometric twitch force (Pt) ([1]; HD group 1.5 g/kg per day): 228.5±15.0 mN | Maximum tetanic force (Po) ([1]; HD group 1.5 g/kg per day): 687.5±52.4 mN | Specific isometric force (Pt/CSA) ([1]; HD group 1.5 g/kg per day): 22.5±5.1 mN/mm^2 | Specific tetanic force (Po/CSA) ([1]; HD group 1.5 g/kg per day): 67.5±15.7 mN/mm^2 | Peak isometric twitch force (Pt) ([1]; LD group 0.15 g/kg per day): 233.6±10.0 mN | Maximum tetanic force (Po) ([1]; LD group 0.15 g/kg per day): 735.0±43.0 mN | Specific isometric force (Pt/CSA) ([1]; LD group 0.15 g/kg per day): 23.4±3.3 mN/mm^2 | Specific tetanic force (Po/CSA) ([1]; LD group 0.15 g/kg per day): 73.5±13.5 mN/mm^2 | Increase of absolute contractile forces (Pt and Po) in littermate mice ([1]; littermate control mice with NAC supplement): not statistically significant | Adverse side effects ([2]; long term treatment of mice): No adverse side effects | Alkaline phosphatase ([2]; treated vs untreated mice): no difference | Blood urea nitrogen ([2]; treated vs untreated mice): no difference | Serum aspartate aminotransferase ([2]; treated vs untreated mice): no difference

From US10493087B2, “Sialylation-increasing therapies for diseases associated with oxidative stress” (THE UNITED STATES OF AMERICA, AS REPRESENTED BY THE …, priority 2015, dated 2019)
